The values that follow come from patent US20200323213A1, “Methods of use for compositions comprising biguanide compound and diol surfactant” (3M INNOVATIVE PROPERTIES COMPANY, priority 2014, published 2020).

The subject of data set [1] is Staphylococcus aureus strain 15981. The data set can be described thus: Antimicrobial efficacy test: survival of planktonic S. aureus after short exposure. It is filed as cell-based. As to conditions: 0.1wt-% of CHG, alone or in combination with DYNOL (text summary, matches Table 4). The text has this:
The composition described herein can reduce and eliminate Staphylococcus aureus and Pseudomonas aeruginosa. Those of ordinary skill in the art will readily determine when a composition provides antimicrobial activity using assay and bacterial screening methods well known in the art. For example, the compositions can be evaluated utilizing Antimicrobial Efficacy Test described in the Examples Section. Briefly, a bacterial suspension is introduced into a liquid composition. After a sufficient contact time, the sample containing the exposed bacteria is collected, placed in neutralizing broth, a sample is taken and diluted, and plated on growth medium. The plated sample is incubated at an appropriate temperature and humidity for twenty four to forty-eight hours and the number of viable bacterial colonies growing on the plate is counted. Once colonies have been counted the reduction in the number of bacteria caused by the test composition is readily determined. Bacterial reduction is generally reported as log10 reduction determined by the difference between the log10 of the initial inoculum count (i.e. the control) and the log10 of the inoculum count after exposure. […]

The conditions of data set [2]: cited from earlier work.

With `N=C(NCCCCCCNC(=N)NC(=N)Nc1ccc(Cl)cc1)NC(=N)Nc1ccc(Cl)cc1.O=C(O)[C@H](O)[C@@H](O)[C@H](O)[C@H](O)CO.O=C(O)[C@H](O)[C@@H](O)[C@H](O)[C@H](O)CO` [CHG, chlorhexidine digluconate], in data set [1], the log10 reduction worked out at 0.32.

Take `CC(=O)O.CC(=O)O.NC(=N\CCCCCC/N=C(N)/N=C(\N)Nc1ccc(Cl)cc1)/N=C(\N)Nc1ccc(Cl)cc1` [diacetate]: the “solubility in aqueous fluid” value in data set [2] is 1.9 g/100 ml.
